Laboratory results: US9527849B2, “Salt and polymorph of pyrazolopyrimidinone compound, and pharmaceutical composition containing the same, preparation method and use thereof” (TOPHARMAN SHANGHAI CO., LTD., priority 2011, dated 2016)
“Also recorded” adds a separate entry of the source. Where a name gives a salt, the structure may show the parent alone. Read-outs that look alike come from different tables or passages of the source. Blank lines part the entries; values can stand above or below the compound they belong to.

Tests used:
[1] = Hygroscopicity, moisture weight gain in desiccator; format: physicochemical; conditions: for Moisture weight gain (%): relative humidity 92.5%, 48 hours, room temperature
Experimental: The hygroscopicities of various salts of compound Z were studied. A certain amount of the sample was placed in a precisely-weighted glass weighing bottle with a stopper to accurately weight. Then the open glass weighing bottle was placed in a desiccator (the saturated potassium nitrate solution was placed at the lower part of the desiccator, the relative humidity was 92.5%) and stood for 48 hours at room temperature. And then the glass weighing bottle was covered with the stopper and weighted again. The absorbent weight can be calculated.

[2] = Impact factor stability test (high temperature, high humidity, light exposure); format: physicochemical; conditions: for chemical stability (in words): high temperature, high humidity
Excerpt: The basic compounds of compound Z and the maleate thereof were selected to compare the chemical stability through an impact factor test, and results were shown in Table 8: […]

[3] = Comparison of solubility in water and buffer solutions; format: physicochemical; conditions: for solubility (in words): in water and in other solvents; for solubility: thermodynamic from solid
Experimental: The basic compound Z and various salts of compound Z were selected to compare the solubility. Appropriate amount of sample was weighed, placed in glass tubes. The predetermined solvent was added gradually and the extension of clear of the solution was observed. The solvent included the follows: pure water (pH 6.2), hydrochloric acid solution (pH1.0), a standard potassium hydrogen phthalate buffer solution (pH 4.0), and a mixed phosphate buffer solution (pH 6.86).

[4] = Comparison of appearance, characters and odor; format: physicochemical
Excerpt: The basic compound Z and various salts of compound Z were selected to compare the appearance and characters.

[5] = system: rats cavernous body pressure/arterial blood pressure (ICP/BP); experiment: Erectile dysfunction (ED) efficacy trial in vivo in rats, method of WO2007056955; conditions: Dose 10 mg/kg, after the administration
[6] = Comparison of salts and crystalline forms (crystal water, static, stability, component, crystalline form); format: physicochemical
[7] = target: PDE1; experiment: In vitro activity against PDE isoenzyme; format: biochemical; conditions: for IC50: PDE1
[8] = target: PDE2 (Homo sapiens, UniProt O00408); experiment: In vitro activity against PDE isoenzyme; format: biochemical
[9] = target: PDE3; experiment: In vitro activity against PDE isoenzyme; format: biochemical
[10] = target: PDE4; experiment: In vitro activity against PDE isoenzyme; format: biochemical; conditions: for IC50: PDE4
[11] = target: PDE5 (Homo sapiens, UniProt O76074); experiment: In vitro activity against PDE isoenzyme; format: biochemical
[12] = target: PDE6; experiment: In vitro activity against PDE isoenzyme; format: biochemical
[13] = target: PDE7; experiment: In vitro activity against PDE isoenzyme; format: biochemical; conditions: for IC50: PDE7
[14] = target: PDE8; experiment: In vitro activity against PDE isoenzyme; format: biochemical; conditions: for IC50: PDE8
[15] = target: PDE9 (Homo sapiens, UniProt O76083); experiment: In vitro activity against PDE isoenzyme; format: biochemical
[16] = target: PDE10 (Homo sapiens, UniProt Q9Y233); experiment: In vitro activity against PDE isoenzyme; format: biochemical
[17] = target: PDE11 (Homo sapiens, UniProt Q9HCR9); experiment: In vitro activity against PDE isoenzyme; format: biochemical
[18] = system: rats with pulmonary arterial hypertension; experiment: Pulmonary arterial hypertension (PAH) rats, chronic oral administration; format: in vivo; conditions: each dose group, FIG. 17
Excerpt: (§1) The effects of maleate of compound Z on pulmonary artery pressure of pulmonary arterial hypertension rats were studied according to the method described in the reference (J Pharmacol Sci, 111, 235-243 (2009)).

[19] = system: rats with pulmonary arterial hypertension; experiment: Pulmonary arterial hypertension (PAH) rats, single intravenous administration; format: in vivo; conditions: single intravenous administration of 1 mg/kg, FIG. 18
Excerpt: as §1

[20] = system: cavernous pressure in rats; experiment: Cavernous pressure in rats induced by electric stimulus to the erectile nerve (ED); format: in vivo; conditions: rat, 2.50-5.00 mg/kg through duodenum; FIG. 19
Excerpt: The effect of maleate of compound Z on the cavernous pressure variation in rats induced by the electric stimulus to the erectile nerve was studied according to the method described in the reference (International Journal of Impotence Research (2002) 14, 251-255).

[21] = High temperature, 5 days, listed as Compound Z (basic)
[22] = High temperature, 10 days, listed as Compound Z (basic)
[23] = Light exposure, 5 days, listed as Compound Z (basic)
[24] = Light exposure, 10 days, listed as Compound Z (basic)

PDE10, sequence (Q9Y233 whole entry): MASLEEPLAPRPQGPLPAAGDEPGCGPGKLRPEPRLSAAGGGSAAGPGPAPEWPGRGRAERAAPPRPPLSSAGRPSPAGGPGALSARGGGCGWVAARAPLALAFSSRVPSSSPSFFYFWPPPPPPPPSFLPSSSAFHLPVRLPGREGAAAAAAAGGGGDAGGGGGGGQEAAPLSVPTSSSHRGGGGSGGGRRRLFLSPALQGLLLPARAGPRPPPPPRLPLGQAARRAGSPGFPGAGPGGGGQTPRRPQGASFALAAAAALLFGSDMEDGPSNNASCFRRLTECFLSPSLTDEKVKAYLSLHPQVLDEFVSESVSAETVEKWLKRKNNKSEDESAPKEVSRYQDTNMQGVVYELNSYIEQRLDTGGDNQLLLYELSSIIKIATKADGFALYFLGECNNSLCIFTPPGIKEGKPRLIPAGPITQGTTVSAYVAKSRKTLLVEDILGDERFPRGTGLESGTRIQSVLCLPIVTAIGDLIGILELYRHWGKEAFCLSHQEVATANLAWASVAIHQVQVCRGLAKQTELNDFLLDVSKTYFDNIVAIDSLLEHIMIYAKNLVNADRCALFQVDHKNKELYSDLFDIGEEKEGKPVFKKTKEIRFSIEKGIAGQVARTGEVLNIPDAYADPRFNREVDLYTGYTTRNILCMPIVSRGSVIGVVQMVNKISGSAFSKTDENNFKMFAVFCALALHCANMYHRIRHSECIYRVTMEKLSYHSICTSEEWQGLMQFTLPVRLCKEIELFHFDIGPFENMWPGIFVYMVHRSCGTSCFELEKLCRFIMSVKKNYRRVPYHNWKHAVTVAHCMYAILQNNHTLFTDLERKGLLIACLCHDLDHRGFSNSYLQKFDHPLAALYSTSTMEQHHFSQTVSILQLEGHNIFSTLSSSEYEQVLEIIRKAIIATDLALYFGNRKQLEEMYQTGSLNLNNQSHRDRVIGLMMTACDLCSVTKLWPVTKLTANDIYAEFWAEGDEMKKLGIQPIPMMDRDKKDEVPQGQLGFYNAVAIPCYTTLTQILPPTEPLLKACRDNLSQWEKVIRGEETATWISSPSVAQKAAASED
PDE9, sequence (O76083 whole entry): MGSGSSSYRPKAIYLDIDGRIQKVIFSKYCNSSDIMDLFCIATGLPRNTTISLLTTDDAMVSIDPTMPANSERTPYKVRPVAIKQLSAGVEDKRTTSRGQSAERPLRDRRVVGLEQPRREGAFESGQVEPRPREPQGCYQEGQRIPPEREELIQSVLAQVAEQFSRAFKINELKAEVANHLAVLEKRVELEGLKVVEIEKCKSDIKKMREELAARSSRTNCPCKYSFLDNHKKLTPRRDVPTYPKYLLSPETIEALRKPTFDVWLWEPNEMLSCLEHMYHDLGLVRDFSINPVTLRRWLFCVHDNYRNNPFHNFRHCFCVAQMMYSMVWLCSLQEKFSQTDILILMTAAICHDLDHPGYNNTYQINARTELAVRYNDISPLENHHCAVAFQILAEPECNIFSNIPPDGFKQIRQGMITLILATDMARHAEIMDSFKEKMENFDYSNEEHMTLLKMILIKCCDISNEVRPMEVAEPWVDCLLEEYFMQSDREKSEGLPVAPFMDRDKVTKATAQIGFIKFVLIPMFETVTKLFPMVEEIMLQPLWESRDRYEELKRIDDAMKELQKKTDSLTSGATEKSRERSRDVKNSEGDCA
PDE2, sequence (O00408 whole entry): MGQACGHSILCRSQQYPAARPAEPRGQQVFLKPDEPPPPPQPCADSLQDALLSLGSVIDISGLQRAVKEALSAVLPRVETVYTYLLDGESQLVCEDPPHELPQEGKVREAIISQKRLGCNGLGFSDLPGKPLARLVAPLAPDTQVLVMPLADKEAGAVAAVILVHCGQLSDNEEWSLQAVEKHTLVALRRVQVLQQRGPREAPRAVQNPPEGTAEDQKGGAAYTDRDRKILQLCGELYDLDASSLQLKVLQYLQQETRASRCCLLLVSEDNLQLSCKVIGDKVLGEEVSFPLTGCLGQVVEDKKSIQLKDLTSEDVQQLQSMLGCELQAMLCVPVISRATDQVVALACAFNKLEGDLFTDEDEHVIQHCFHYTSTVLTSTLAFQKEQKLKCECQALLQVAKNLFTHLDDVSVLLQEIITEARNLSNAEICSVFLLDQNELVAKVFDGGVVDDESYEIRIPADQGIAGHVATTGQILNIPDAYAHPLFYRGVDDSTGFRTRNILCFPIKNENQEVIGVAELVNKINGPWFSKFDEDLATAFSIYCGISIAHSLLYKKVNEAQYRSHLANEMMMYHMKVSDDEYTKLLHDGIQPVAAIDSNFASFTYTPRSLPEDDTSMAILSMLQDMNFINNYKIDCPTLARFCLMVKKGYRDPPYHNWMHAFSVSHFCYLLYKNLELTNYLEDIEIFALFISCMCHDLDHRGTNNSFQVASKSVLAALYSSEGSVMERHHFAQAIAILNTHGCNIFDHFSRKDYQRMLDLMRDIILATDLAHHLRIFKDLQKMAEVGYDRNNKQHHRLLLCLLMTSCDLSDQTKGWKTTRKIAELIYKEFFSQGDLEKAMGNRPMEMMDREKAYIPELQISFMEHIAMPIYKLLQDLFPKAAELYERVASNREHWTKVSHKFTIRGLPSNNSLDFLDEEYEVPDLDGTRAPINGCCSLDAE
PDE11, sequence (Q9HCR9 whole entry): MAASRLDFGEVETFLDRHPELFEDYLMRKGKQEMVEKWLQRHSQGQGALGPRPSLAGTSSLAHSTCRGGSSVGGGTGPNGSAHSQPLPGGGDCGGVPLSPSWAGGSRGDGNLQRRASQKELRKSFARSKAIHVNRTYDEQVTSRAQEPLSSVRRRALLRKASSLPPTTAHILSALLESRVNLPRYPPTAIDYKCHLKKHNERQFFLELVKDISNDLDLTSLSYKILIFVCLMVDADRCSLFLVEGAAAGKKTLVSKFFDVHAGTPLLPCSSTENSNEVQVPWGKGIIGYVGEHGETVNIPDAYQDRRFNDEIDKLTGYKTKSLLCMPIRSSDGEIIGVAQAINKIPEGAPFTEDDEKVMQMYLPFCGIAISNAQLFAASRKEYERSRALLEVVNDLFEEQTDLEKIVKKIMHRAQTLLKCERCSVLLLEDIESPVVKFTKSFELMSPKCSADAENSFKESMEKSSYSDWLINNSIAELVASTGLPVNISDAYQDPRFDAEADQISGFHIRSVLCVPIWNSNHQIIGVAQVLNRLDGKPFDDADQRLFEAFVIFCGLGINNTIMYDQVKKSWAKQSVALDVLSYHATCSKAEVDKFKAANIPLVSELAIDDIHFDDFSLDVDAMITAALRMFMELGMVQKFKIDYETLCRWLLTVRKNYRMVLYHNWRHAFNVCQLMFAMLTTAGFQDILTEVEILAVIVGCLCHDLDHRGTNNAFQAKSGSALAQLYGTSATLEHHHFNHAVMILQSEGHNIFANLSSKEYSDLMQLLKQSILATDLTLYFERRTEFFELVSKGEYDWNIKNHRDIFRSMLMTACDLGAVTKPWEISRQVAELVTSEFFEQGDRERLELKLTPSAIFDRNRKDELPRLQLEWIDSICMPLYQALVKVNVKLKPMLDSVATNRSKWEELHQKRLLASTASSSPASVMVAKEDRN

trait ([2]; 0 day): white
purity ([2]; 0 day, listed as Compound Z (basic)): 98.25%
trait ([2]; High humidity, 5 days): white
purity ([2]; High humidity, 5 days, listed as Compound Z (basic)): 98.02%
trait ([2]; High humidity, 10 days): white
purity ([2]; High humidity, 10 days, listed as Compound Z (basic)): 98.20%
purity [2, 21]: 94.70%
trait [2, 21]: pale yellow
purity [2, 22]: 94.55%
trait [2, 22]: yellow
purity [2, 23]: 72.49%
trait [2, 23]: pale yellow
purity [2, 24]: 55.88%
trait [2, 24]: pale yellow
chemical stability (in words) ([2]; light exposure): poor chemical stability
chemical stability (in words) ([2]; light exposure, listed as basic compound Z): poor stability
degradation ([2]; light exposure, after 10 days): ~50%
Solubility, Pure water (pH 6.1) ([3]; Pure water (pH 6.1), listed as Compound Z (basic)): insoluble
Solubility, hydrochloric acid solution (pH 1.0) ([3]; hydrochloric acid solution (pH 1.0), listed as Compound Z (basic)): >21 mg/ml
solubility (in words) [3]: poor water-solubility
solubility (in words) ([3]; listed as basic compound Z): significantly less
Solubility, buffer solution (pH 6.86) ([3]; mixed phosphate buffer solution (pH 6.86), listed as Compound Z (basic)): insoluble
solubility ([3]; standard potassium hydrogen phthalate buffer solution, pH 4, aqueous buffer, potassium hydrogen phthalate buffer solution (pH 4.0), read-out: Solubility, buffer solution (pH 4.0)): > 5.88 mg/mL
Characters [4]: white solid
Odor [4]: pungent odor
Odor ([4]; listed as compound Z): pungent odor
Moisture weight gain (%) ([1]; listed as Basic compound Z): 0.39%
Compound: CCCOc1ccc(S(=O)(=O)N(C)CCN2CCCC2)cc1-c1nc2c(CCC)nn(C)c2c(=O)[nH]1 [Compound Z, 1-methyl-5-{2-propoxy-5-[[1-methyl-1-(2-pyrrolidin-1-yl)ethyl]aminosulfonyl]phenyl}-3-propyl-1,6-dihydro-7H-pyrazolo[4,3-d]pyrimidin-7-one]
ICP/BP increasing rate (%) ([5]; listed as basic compound Z, 10 mg/kg): 72.22 ± 19.28 %

purity ([2]; 0 day): 99.79%
trait ([2]; 0 day): white
purity ([2]; High humidity, 5 days): 99.79%
trait ([2]; High humidity, 5 days): white
purity ([2]; High humidity, 10 days): 99.80%
trait ([2]; High humidity, 10 days): white
purity ([2]; High temperature, 5 days): 99.69%
trait ([2]; High temperature, 5 days): white
purity ([2]; High temperature, 10 days): 99.76%
trait ([2]; High temperature, 10 days): white
purity ([2]; Light exposure, 5 days): 99.65%
trait ([2]; Light exposure, 5 days): white
purity ([2]; Light exposure, 10 days): 99.68%
trait ([2]; Light exposure, 10 days): white
chemical stability (in words) ([2]; light exposure): stable
solubility ([3]; hydrochloric acid solution, pH 1, simulated gastric fluid, hydrochloric acid solution (pH 1.0), read-out: Solubility, hydrochloric acid solution (pH 1.0)): > 42 mg/mL
solubility ([3]; mixed phosphate buffer solution, pH 6.86, aqueous buffer, mixed phosphate buffer solution (pH 6.86), read-out: Solubility, buffer solution (pH 6.86)): > 19.8 mg/mL
solubility ([3]; pure water, pH 6.1, water, Pure water (pH 6.1), read-out: Solubility, Pure water (pH 6.1)): > 11 mg/mL
Characters [4]: white solid
Odor [4]: no bad smell
component [6]: constant
crystal water [6]: no
stability [6]: stable
static [6]: no
hygroscopicity (in words) [1]: minimal hygroscopicity
Moisture weight gain (%) [1]: 1.56%
IC50 [7]: 462 nM
IC50(PDEs)/IC50(PDE5) ([7]; PDE1 vs PDE5): 203
IC50 ([8]; PDE2): > 100 µM
IC50(PDEs)/IC50(PDE5) ([8]; PDE2 vs PDE5): >10000
IC50 ([9]; PDE3): 22 µM
IC50(PDEs)/IC50(PDE5) ([9]; PDE3 vs PDE5): 9649
IC50 [10]: 4.07 µM
IC50(PDEs)/IC50(PDE5) ([10]; PDE4 vs PDE5): 1785
IC50 ([11]; PDE5): 2.28 nM
activity and selectivity for PDE5 enzyme (in words) ([11]; in vitro enzyme inhibitors screening test): high activity and selectivity
IC50 ([12]; PDE6): 45.2 nM
IC50(PDEs)/IC50(PDE5) ([12]; PDE6 vs PDE5): 20
IC50 [13]: > 100 µM
IC50(PDEs)/IC50(PDE5) ([13]; PDE7 vs PDE5): >10000
IC50 [14]: > 100 µM
IC50(PDEs)/IC50(PDE5) ([14]; PDE8 vs PDE5): >10000
IC50 ([15]; PDE9): > 100 µM
IC50(PDEs)/IC50(PDE5) ([15]; PDE9 vs PDE5): >10000
IC50 ([16]; PDE10): > 100 µM
IC50(PDEs)/IC50(PDE5) ([16]; PDE10 vs PDE5): >10000
IC50 ([17]; PDE11): 6.09 µM
IC50(PDEs)/IC50(PDE5) ([17]; PDE11 vs PDE5): 2671
Compound: CCCOc1ccc(S(=O)(=O)N(C)CCN2CCCC2)cc1-c1nc2c(CCC)nn(C)c2c(=O)[nH]1 [Maleate of compound Z, 1-methyl-5-{2-propoxy-5-[[1-methyl-1-(2-pyrrolidin-1-yl)ethyl]aminosulfonyl]phenyl}-3-propyl-1,6-dihydro-7H-pyrazolo[4,3-D]pyrimidin-7-one maleate]
ICP/BP increasing rate (%) ([5]; 10 mg/kg): 80.99 ± 17.01 %
pulmonary arterial pressure compared with the model group [18]: significantly reduce
pulmonary arterial pressure compared with the positive control group [18]: no significant difference
mean aortic pressure [19]: significantly reduce
mean pulmonary artery pressure [19]: significantly reduce
selectivity for the reduction of pulmonary artery pressure [19]: strong selectivity
ICP value (cavernous peak pressure) [20]: significantly increased
ICP/BP values (cavernous peak pressure/carotid arterial blood pressure) [20]: significantly increased

More lines, now with the values behind:

Compound: CCCOc1ccc(S(=O)(=O)N(C)CCN2CCCC2)cc1-c1nc2c(CCC)nn(C)c2c(=O)[nH]1 (as salt: maleate) [Maleate of compound Z, 1-methyl-5-{2-propoxy-5-[[1-methyl-1-(2-pyrrolidin-1-yl)ethyl]aminosulfonyl]phenyl}-3-propyl-1,6-dihydro-7H-pyrazolo[4,3-D]pyrimidin-7-one maleate]
melting point: 162.5 to 163.3 °C

Compound: 1-methyl-5-{2-propoxy-5-[[1-methyl-1-(2-pyrrolidin-1-yl)ethyl]aminosulfonyl]phenyl}-3-propyl-1,6-dihydro-7H-pyrazolo[4,3-D]pyrimidin-7-one maleate
hygroscopicity (in words) [1]: low moisture absorption; also recorded: no hygroscopicity

Compound: CCCc1nn(C)c2c(=O)[nH]c(-c3cc(S(=O)(=O)N4CCN(C)CC4)ccc3OCC)nc12 [Sildenafil, reference compound]
ICP/BP increasing rate (%) [5]: 73.10 ± 36.24 %
IC50 [7]: 460 nM
IC50 [10]: 5.83 µM
IC50 [13]: 46.9 µM
IC50 [14]: > 100 µM
